Assay results reported in patent US20240150369A1, “CYCLIN-DEPENDENT KINASE INHIBITING COMPOUNDS FOR THE TREATMENT OF MEDICAL DISORDERS” (G1 Therapeutics, Inc., priority 2020, published 2024).

What was measured:
Format in all cases: biochemical
[1] = molecular target: CDK2/Cyclin A (Homo sapiens (Human), UniProt P24941); assay: CDK2/Cyclin A kinase assay (Nanosyn, Caliper microfluidic); details: 12-point dose-response, singlicate, at Km for ATP; ATP 50 μM; 3 hr
Description: (§1) Selected compounds disclosed herein were tested in kinase assays by Nanosyn (Santa Clara, CA) to determine their inhibitory effect on these CDKs. The assays were performed using microfluidic kinase detection technology (Caliper Assay Platform). The compounds were tested in 12-point dose-response format in singlicate at Km for ATP. Specifics of each assay are as described below:
CDK2/Cyclin A: Enzyme concentration: 0.1 nM; ATP concentration: 50 μM; Incubation time: 3 hr.

[2] = molecular target: CDK4/Cyclin D1 (Homo sapiens (Human), UniProt P11802); assay: CDK4/Cyclin D1 kinase assay (Nanosyn, Caliper microfluidic); details: 12-point dose-response, singlicate, at Km for ATP; ATP 200 μM; 3 hr
CDK4/Cyclin D1, sequence (P11802 whole entry): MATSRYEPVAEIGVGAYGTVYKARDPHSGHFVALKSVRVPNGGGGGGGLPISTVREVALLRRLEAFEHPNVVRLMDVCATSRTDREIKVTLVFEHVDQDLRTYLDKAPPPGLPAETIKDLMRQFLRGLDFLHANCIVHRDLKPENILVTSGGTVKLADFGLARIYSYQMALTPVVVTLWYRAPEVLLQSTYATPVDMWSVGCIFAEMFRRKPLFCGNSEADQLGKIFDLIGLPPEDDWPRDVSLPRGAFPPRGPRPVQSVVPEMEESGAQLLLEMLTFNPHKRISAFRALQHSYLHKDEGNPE
CDK4/Cyclin D1, sequence (P24385 whole entry partner): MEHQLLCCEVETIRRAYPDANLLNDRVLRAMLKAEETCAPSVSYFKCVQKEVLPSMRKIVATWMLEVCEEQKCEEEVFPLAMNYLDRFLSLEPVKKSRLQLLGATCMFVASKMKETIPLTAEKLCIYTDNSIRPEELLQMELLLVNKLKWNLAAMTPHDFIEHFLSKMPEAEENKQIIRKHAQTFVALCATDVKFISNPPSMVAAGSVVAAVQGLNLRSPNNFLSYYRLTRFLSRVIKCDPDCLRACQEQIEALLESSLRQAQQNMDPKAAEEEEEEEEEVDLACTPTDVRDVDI
Description: as §1
CDK4/Cyclin D1: Enzyme concentration: 1 nM; ATP concentration: 200 μM; Incubation time: 3 hr.

[3] = molecular target: CDK9/Cyclin T1 (Homo sapiens (Human), UniProt P50750); assay: CDK9/Cyclin T1 kinase assay (Nanosyn, Caliper microfluidic); details: 12-point dose-response, singlicate, at Km for ATP; ATP 10 μM; 17 hr
CDK9/Cyclin T1, sequence (P50750 whole entry): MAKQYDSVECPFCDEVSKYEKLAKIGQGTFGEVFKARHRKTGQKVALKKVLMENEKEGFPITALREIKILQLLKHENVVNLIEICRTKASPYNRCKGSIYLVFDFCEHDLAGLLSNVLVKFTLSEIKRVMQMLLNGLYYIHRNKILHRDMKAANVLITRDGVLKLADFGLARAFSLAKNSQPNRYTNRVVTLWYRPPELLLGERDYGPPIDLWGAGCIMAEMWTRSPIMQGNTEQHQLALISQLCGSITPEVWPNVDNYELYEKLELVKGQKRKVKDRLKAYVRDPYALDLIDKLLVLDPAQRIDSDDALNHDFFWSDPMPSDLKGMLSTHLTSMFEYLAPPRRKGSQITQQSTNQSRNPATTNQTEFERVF
CDK9/Cyclin T1, sequence (O60563 whole entry partner): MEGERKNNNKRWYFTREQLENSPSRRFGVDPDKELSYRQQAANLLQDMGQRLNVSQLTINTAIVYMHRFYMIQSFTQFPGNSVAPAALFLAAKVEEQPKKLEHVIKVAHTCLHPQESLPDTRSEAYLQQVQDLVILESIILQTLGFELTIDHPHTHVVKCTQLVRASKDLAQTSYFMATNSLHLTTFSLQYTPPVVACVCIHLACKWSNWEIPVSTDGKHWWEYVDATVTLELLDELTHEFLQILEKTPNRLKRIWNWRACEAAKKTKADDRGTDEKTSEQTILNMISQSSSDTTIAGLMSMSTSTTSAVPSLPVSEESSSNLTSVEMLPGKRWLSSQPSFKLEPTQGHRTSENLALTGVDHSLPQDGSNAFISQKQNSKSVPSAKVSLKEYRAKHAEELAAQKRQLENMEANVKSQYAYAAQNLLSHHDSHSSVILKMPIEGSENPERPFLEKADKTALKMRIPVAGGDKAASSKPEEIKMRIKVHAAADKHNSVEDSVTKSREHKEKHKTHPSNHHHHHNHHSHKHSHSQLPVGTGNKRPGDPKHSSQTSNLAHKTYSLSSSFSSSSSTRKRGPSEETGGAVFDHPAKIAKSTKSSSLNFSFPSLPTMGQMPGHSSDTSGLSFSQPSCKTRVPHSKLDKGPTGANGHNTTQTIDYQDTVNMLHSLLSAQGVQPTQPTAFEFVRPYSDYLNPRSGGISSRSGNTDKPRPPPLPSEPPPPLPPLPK
Description: as §1
CDK9/Cyclin T1: Enzyme concentration: 5 nM; ATP concentration: 10 μM; Incubation time: 17 hr.

[4] = molecular target: CDK1/Cyclin B1 (Homo sapiens (Human), UniProt P06493); assay: CDK1/Cyclin B1 kinase assay (Nanosyn, Caliper microfluidic); details: 12-point dose-response, singlicate, at Km for ATP; ATP 40 μM; 3 hr
CDK1/Cyclin B1, sequence (P06493 whole entry): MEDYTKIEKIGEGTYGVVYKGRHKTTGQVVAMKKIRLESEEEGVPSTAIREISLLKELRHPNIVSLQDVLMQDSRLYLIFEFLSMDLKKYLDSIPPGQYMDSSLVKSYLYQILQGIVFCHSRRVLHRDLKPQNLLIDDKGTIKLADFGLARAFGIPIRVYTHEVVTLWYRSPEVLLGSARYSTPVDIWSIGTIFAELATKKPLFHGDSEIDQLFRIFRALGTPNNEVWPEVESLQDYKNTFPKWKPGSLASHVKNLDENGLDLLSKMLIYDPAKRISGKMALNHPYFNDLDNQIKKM
CDK1/Cyclin B1, sequence (P14635 whole entry partner): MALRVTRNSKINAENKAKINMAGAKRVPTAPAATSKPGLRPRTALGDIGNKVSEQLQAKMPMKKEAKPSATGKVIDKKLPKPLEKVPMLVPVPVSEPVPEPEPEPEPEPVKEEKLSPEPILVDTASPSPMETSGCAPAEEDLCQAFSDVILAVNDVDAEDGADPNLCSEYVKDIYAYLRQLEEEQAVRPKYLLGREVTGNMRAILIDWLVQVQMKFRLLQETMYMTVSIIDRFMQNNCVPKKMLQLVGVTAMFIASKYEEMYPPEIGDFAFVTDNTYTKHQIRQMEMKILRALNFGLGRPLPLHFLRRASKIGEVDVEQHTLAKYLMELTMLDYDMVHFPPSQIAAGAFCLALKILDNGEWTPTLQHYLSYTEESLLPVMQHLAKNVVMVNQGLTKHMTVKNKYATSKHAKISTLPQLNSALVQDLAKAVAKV
Description: as §1
CDK1/Cyclin B1: Enzyme concentration: 0.08 nM; ATP concentration: 40 μM; Incubation time: 3 hr.

[5] = molecular target: CDK2/Cyclin E (Homo sapiens (Human), UniProt P24941); assay: CDK2/Cyclin E kinase assay (Nanosyn, Caliper microfluidic); details: 12-point dose-response, singlicate, at Km for ATP; ATP 100 μM; 3 hr
Description: as §1
CDK2/Cyclin E: Enzyme concentration: 0.15 nM; ATP concentration: 100 μM; Incubation time: 3 hr.

[6] = molecular target: CDK7 (Homo sapiens (Human), UniProt P50613); assay: CDK7 kinase assay (Nanosyn, Caliper microfluidic); details: 12-point dose-response, singlicate, at Km for ATP
CDK7, sequence (P50613 whole entry): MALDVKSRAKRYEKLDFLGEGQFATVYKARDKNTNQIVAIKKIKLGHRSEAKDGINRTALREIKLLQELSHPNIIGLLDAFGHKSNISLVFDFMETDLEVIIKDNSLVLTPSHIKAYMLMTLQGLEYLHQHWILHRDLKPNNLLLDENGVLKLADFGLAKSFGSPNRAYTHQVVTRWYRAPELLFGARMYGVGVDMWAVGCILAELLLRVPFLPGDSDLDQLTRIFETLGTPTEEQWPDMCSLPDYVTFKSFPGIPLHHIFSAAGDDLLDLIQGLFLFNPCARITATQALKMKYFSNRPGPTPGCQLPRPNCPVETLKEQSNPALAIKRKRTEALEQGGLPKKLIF
CDK7, sequence (P51946 whole entry partner): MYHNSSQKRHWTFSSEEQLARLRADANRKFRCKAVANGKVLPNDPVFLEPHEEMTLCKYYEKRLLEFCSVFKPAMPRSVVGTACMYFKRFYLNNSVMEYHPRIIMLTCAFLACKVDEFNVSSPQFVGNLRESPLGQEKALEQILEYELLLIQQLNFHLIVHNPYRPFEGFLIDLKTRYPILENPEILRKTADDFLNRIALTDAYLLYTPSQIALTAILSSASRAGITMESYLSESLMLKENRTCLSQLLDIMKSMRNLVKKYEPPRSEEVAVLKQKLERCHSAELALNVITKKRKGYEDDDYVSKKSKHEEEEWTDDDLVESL
CDK7, sequence (P51948 whole entry partner): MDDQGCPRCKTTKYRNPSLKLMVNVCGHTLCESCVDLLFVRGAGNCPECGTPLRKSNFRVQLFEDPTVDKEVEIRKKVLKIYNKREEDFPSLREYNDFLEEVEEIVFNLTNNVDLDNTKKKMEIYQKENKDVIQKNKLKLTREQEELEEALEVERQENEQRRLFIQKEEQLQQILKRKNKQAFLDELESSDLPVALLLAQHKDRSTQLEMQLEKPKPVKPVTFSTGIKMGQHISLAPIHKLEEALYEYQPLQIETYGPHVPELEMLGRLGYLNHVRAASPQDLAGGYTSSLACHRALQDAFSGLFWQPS
Description: as §1, with “ATP.” for “ATP. Specifics of each assay are as described below:”

[7] = molecular target: CDK3-CYCLIN-E (Homo sapiens (Human), UniProt Q00526); assay: CDK3-Cyclin-E kinase assay (Nanosyn, Caliper microfluidic); details: 12-point dose-response, singlicate, at Km for ATP
Description: as §1, with “ATP.” for “ATP. Specifics of each assay are as described below:”

[8] = molecular target: CDK6/Cyclin D3 (Homo sapiens (Human), UniProt Q00534); assay: CDK6/Cyclin D3 kinase assay (Nanosyn, Caliper microfluidic); details: 12-point dose-response, singlicate, at Km for ATP; ATP 300 μM; 3 hr
CDK6/Cyclin D3, sequence (Q00534 whole entry): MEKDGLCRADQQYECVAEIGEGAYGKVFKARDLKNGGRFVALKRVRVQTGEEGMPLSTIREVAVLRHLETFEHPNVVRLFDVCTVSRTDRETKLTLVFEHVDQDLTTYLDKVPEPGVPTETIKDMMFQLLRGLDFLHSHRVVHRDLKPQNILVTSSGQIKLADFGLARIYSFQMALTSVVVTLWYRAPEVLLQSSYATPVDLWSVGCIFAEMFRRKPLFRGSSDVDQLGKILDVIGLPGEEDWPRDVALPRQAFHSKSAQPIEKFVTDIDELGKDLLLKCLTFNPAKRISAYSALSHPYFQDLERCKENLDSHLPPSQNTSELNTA
CDK6/Cyclin D3, sequence (P30281 whole entry partner): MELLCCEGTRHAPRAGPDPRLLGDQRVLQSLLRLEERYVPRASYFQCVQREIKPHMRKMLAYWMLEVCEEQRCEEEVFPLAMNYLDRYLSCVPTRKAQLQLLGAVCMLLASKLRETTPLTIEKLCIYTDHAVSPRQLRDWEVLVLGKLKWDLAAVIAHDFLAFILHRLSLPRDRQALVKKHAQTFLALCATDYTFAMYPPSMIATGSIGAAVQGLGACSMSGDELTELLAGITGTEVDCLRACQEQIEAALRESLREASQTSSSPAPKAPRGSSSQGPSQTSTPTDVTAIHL
Description: as §1
CDK6/Cyclin D3: Enzyme concentration: 2 nM; ATP concentration: 300 μM; Incubation time: 3 hr.

Row | SMILES | IC50 [1] [nM] | IC50 [2] [nM] | IC50 [3] [nM] | IC50 [4] [nM] | IC50 [5] [nM] | IC50 [6] [nM] | IC50 [7] [nM] | IC50 [8] [nM]
1 | NS(=O)(=O)c1ccc(Nc2ncc3cc4n(c3n2)C2(C=NN4)CCCCC2)cc1 [Compound 4, 4-((1′H-spiro[cyclohexane-1,4′-pyrimido[5′,4′:4,5]pyrrolo[2,1-c][1,2,4]triazin]-7′-yl)amino)benzenesulfonamide] | 1 | 53 | 11 | 89 | 1 | 230 | 5 | 170
2 | CN1N=CC2(CCCCC2)n2c1cc1cnc(Nc3ccc(S(N)(=O)=O)cc3)nc12 [Compound 5, 4-((1′-methyl-1′H-spiro[cyclohexane-1,4′-pyrimido[5′,4′:4,5]pyrrolo[2,1-c][1,2,4]triazin]-7′-yl)amino)benzenesulfonamide] | 2 | 41 | 26 | 11 | 3 | 875 | 23 | 231
3 | NS(=O)(=O)c1ccc(Nc2ncc3cc4n(c3n2)C2(CCCCC2)C(=O)N[C@@H]4CF)cc1 [Compound 23, (S)-4-((6′-(fluoromethyl)-8′-oxo-7′,8′-dihydro-6′H-spiro[cyclohexane-1,9′-pyrazino[1′2′:1,5]pyrrolo[2,3-d]pyrimidin]-2′-yl)amino)benzenesulfonamide] | 1 | 19 | 11 | 20 | 1 | 682 | 6 | 45
4 | CC1C(=O)Nc2cc3cnc(Nc4ccc(S(N)(=O)=O)cc4)nc3n2C12CCCCC2 (stereo not shown) [Compound 42, 4-((8′-methyl-7′-oxo-7′,8′-dihydro-6′H-spiro[cyclohexane-1,9′-pyrrolo[1,5-a:2,3-d′]dipyrimidin]-2′-yl)amino)benzenesulfonamide] | 1 |  | 6 | 7 | 1 |  | 10 | 
5 | CC1C(=O)N(C)c2cc3cnc(Nc4ccc(S(N)(=O)=O)cc4)nc3n2C12CCCCC2 (stereo not shown) [Compound 43, 4-((6′,8′-dimethyl-7′-oxo-7′,8′-dihydro-6′H-spiro[cyclohexane-1,9′-pyrrolo[1,5-a:2,3-d′]dipyrimidin]-2′-yl)amino)benzenesulfonamide] | 4 |  | 21 | 33 | 4 |  | 29 | 
6 | CC1=NNc2cc3cnc(Nc4ccc(S(N)(=O)=O)cc4)nc3n2C12CCCCC2 [Compound 45, 4-((3′-methyl-1′H-spiro[cyclohexane-1,4′-pyrimido[5′,4′:4,5]pyrrolo[2,1-c][1,2,4]triazin]-7′-yl)amino)benzenesulfonamide] | 16 | 436 | 240 | 108 | 19 | > 1000 | 73 | > 1000
7 | CC1=NN(C)c2cc3cnc(Nc4ccc(S(N)(=O)=O)cc4)nc3n2C12CCCCC2 [Compound 46, 4-((1′,3′-dimethyl-1′H-spiro[cyclohexane-1,4′-pyrimido[5′,4′:4,5]pyrrolo[2,1-c][1,2,4]triazin]-7′-yl)amino)benzenesulfonamide] | 2 | 22 | 9 | 14 | 2 | 723 | 13 | 83
8 | CN1CCN(S(=O)(=O)c2ccc(Nc3ncc4cc5n(c4n3)C3(CCCCC3)C(=O)NN5)cc2)CC1 [Compound 49, 7′-((4-((4-methylpiperazin-1-yl)sulfonyl)phenyl)amino)-1′,2′-dihydro-3′H-spiro[cyclohexane-1,4′-pyrimido[5′,4′:4,5]pyrrolo[2,1-c][1,2,4]triazin]-3′-one] | 45 | 253 | 199 | 478 | 10 | 242 | 115 | 480
9 | CN1CCN(S(=O)(=O)c2ccc(Nc3ncc4cc5n(c4n3)C3(CCCCC3)C(=O)NC5O)cc2)CC1 (stereo not shown) [Compound 50, 6′-hydroxy-2′-((4-((4-methylpiperazin-1-yl)sulfonyl)phenyl)amino)-6′,7′-dihydro-8′H-spiro[cyclohexane-1,9′-pyrazino[1′,2′:1,5]pyrrolo[2,3-d]pyrimidin]-8′-one] | 2 | 113 | 2 | 78 | 4 | 118 | 28 | 51
10 | CN1CCN(S(=O)(=O)c2ccc(Nc3ncc4cc5n(c4n3)C3(CCCCC3)CC(=O)N5)cc2)CC1 [Compound 51, 2′-((4-((4-methylpiperazin-1-yl)sulfonyl)phenyl)amino)-6′H-spiro[cyclohexane-1,9′-pyrrolo[1,5-a:2,3-d′]dipyrimidin]-7′(8′H)-one] | 4 | 41 | 5 | 31 | 5 | 66 | 23 | 63
11 | CN1CCN(C(=O)c2ccc(Nc3ncc4cc5n(c4n3)C3(CCCCC3)C(=O)NN5)cc2)CC1 [Compound 52, 7′-((4-(4-methylpiperazine-1-carbonyl)phenyl)amino)-1′,2′-dihydro-3′H-spiro[cyclohexane-1,4′-pyrimido[5′,4′:4,5]pyrrolo[2,1-c][1,2,4]triazin]-3′-one] | 18 | 27 | 318 | 242 | 4.5 | > 1000 | 75 | 75
12 | CNC(=O)Nc1ccc(Nc2ncc3cc4n(c3n2)C2(CCCCC2)C(=O)NN4)cc1 [Compound 68, 1-methyl-3-(4-((3′-oxo-2′,3′-dihydro-1′H-spiro[cyclohexane-1,4′-pyrimido[5′,4′:4,5]pyrrolo[2,1-c][1,2,4]triazin]-7′-yl)amino)phenyl)urea] | 841 | 595 | 284 | > 1000 | 349 |  |  | > 1000
13 | CC1C(=O)Nc2cc3cnc(Nc4ccc(C(=O)N5CCN(C)CC5)cc4)nc3n2C12CCCCC2 (stereo not shown) [Compound 71, 8′-methyl-2′-((4-(4-methylpiperazine-1-carbonyl)phenyl)amino)-6′H-spiro[cyclohexane-1,9′-pyrrolo[1,5-a:2,3-d′]dipyrimidin]-7′(8′H)-one] | 4 | 9 | 9 | 15 | 3 |  |  | 15
14 | CS(=N)(=O)c1ccc(Nc2ncc3cc4n(c3n2)C2(CCCCC2)C(=O)NN4)cc1 (stereo not shown) [Compound 79, 7′-((4-(S-methylsulfonimidoyl)phenyl)amino)-1′,2′-dihydro-3′H-spiro[cyclohexane-1,4′-pyrimido[5′,4′:4,5]pyrrolo[2,1-c][1,2,4]triazin]-3′-one] | 16 | 172 | 89 | 146 | 5 |  |  | 291
15 | Nc1ccc(S(=O)(=O)Nc2ncc3cc4n(c3n2)C2(CCCCC2)C(=O)NN4)cc1 [Compound 84, 4-amino-N-(3′-oxo-2′,3′-dihydro-1′H-spiro[cyclohexane-1,4′-pyrimido[5′,4′:4,5]pyrrolo[2,1-c][1,2,4]triazin]-7′-yl)benzenesulfonamide] | 571 | > 1000 | > 1000 | > 1000 | 207 |  |  | > 1000
16 | Nc1ccc(S(=O)(=O)Nc2ncc3cc4n(c3n2)C2(CCCCC2)CNC4=O)cc1 [Compound 91, 4-amino-N-(6′-oxo-7′,8′-dihydro-6′H-spiro[cyclohexane-1,9′-pyrazino[1′,2′:1,5]pyrrolo[2,3-d]pyrimidin]-2′-yl)benzenesulfonamide] | 322 | 361 | 183 | > 1000 | 287 |  |  | 920
